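These data come from cells grown in 96-well plates and exposed to compound for 48 hours at five concentrations. GI50 marks 50% less growth. TGI: concentration producing complete growth inhibition.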
These compounds were tested on 786-0 renal (assay: DTP human tumour cell line panel, 48 h).
`COC(=O)c1cc2oc(/C=C3/SC(=S)N(NC(C)=O)C3=O)cc2n1C` gave a GI50 of 20.1 µM and a TGI of 42.6 µM.
`CC1(C)[C@@H](NOCCCN)CC[C@]2(C)[C@H]3C(=O)C=C4[C@@H]5C[C@](C)(C(=O)O)CC[C@]5(C)CC[C@@]4(C)[C@]3(C)CC[C@@H]12` gave a GI50 of 6.23 µM and a TGI of 19.2 µM.
In the case of `O=C1NC(=NCc2ccccc2)S/C1=C\c1ccc2ncccc2c1`, the GI50 is reported as greater than 25 µM and the TGI is reported as greater than 25 µM.

The compounds below were run on A498 renal (assay: DTP human tumour cell line panel, 48 h).
Compound `COC(=O)c1cc2oc(/C=C3/SC(=S)N(NC(C)=O)C3=O)cc2n1C` has a GI50 of 10.8 µM and a TGI of 28.1 µM.
`CC1(C)[C@@H](NOCCCN)CC[C@]2(C)[C@H]3C(=O)C=C4[C@@H]5C[C@](C)(C(=O)O)CC[C@]5(C)CC[C@@]4(C)[C@]3(C)CC[C@@H]12` was tested, and the GI50 was 17.8 µM and the TGI was 43 µM.
With `Oc1ccc(NCn2c(=S)sc3ccccc32)cc1` the TGI was greater than 100 µM.
With `O=C1NC(=NCc2ccccc2)S/C1=C\c1ccc2ncccc2c1` the GI50 was greater than 25 µM and the TGI was greater than 25 µM.

These compounds were tested on A549 NSCLC (assay: DTP human tumour cell line panel, 48 h).
`COC(=O)c1cc2oc(/C=C3/SC(=S)N(NC(C)=O)C3=O)cc2n1C` was tested, and the GI50 was 28.3 µM and the TGI was greater than 100 µM.
With `CC1(C)[C@@H](NOCCCN)CC[C@]2(C)[C@H]3C(=O)C=C4[C@@H]5C[C@](C)(C(=O)O)CC[C@]5(C)CC[C@@]4(C)[C@]3(C)CC[C@@H]12` the GI50 was 6.13 µM and the TGI was 33.6 µM.
Compound `Oc1ccc(NCn2c(=S)sc3ccccc32)cc1` has a TGI greater than 100 µM.
`O=C1NC(=NCc2ccccc2)S/C1=C\c1ccc2ncccc2c1` showed a GI50 of 24.6 µM and a TGI greater than 25 µM.

What follows are compounds tested on ACHN renal (assay: DTP human tumour cell line panel, 48 h).
For `N=C(N)c1ccc(OCCCCCCCCCCOc2ccc(C(=N)N)cc2)cc1`, the GI50 was 1.54 µM and the TGI was 2.88 µM.
Compound `COC(=O)c1cc2oc(/C=C3/SC(=S)N(NC(C)=O)C3=O)cc2n1C` has a GI50 of 15.8 µM and a TGI of 43.5 µM.
`CC1(C)[C@@H](NOCCCN)CC[C@]2(C)[C@H]3C(=O)C=C4[C@@H]5C[C@](C)(C(=O)O)CC[C@]5(C)CC[C@@]4(C)[C@]3(C)CC[C@@H]12` was tested, and the GI50 was 7.87 µM and the TGI was 21.2 µM.
Compound `Oc1ccc(NCn2c(=S)sc3ccccc32)cc1` has a TGI greater than 100 µM.
`O=C1NC(=NCc2ccccc2)S/C1=C\c1ccc2ncccc2c1` gave a GI50 greater than 25 µM and a TGI greater than 25 µM.

These compounds were tested on BT-549 breast (assay: DTP human tumour cell line panel, 48 h).
With `COC(=O)c1cc2oc(/C=C3/SC(=S)N(NC(C)=O)C3=O)cc2n1C` the GI50 was 6.13 µM and the TGI was 22.7 µM.
In the case of `CC1(C)[C@@H](NOCCCN)CC[C@]2(C)[C@H]3C(=O)C=C4[C@@H]5C[C@](C)(C(=O)O)CC[C@]5(C)CC[C@@]4(C)[C@]3(C)CC[C@@H]12`, the GI50 is reported as 9.44 µM and the TGI is reported as 47.8 µM.
Compound `Oc1ccc(NCn2c(=S)sc3ccccc32)cc1` has a TGI greater than 100 µM.
`O=C1NC(=NCc2ccccc2)S/C1=C\c1ccc2ncccc2c1` showed a GI50 greater than 25 µM and a TGI greater than 25 µM.

Each compound was assayed on CAKI-1 renal (assay: DTP human tumour cell line panel, 48 h).
`COC(=O)c1cc2oc(/C=C3/SC(=S)N(NC(C)=O)C3=O)cc2n1C` was tested, and the GI50 was 10 µM and the TGI was 36.9 µM.
`CC1(C)[C@@H](NOCCCN)CC[C@]2(C)[C@H]3C(=O)C=C4[C@@H]5C[C@](C)(C(=O)O)CC[C@]5(C)CC[C@@]4(C)[C@]3(C)CC[C@@H]12` showed a GI50 of 2.44 µM and a TGI of 6.26 µM.
In the case of `Oc1ccc(NCn2c(=S)sc3ccccc32)cc1`, the TGI is reported as greater than 100 µM.
In the case of `O=C1NC(=NCc2ccccc2)S/C1=C\c1ccc2ncccc2c1`, the GI50 is reported as greater than 25 µM and the TGI is reported as greater than 25 µM.

What follows are compounds tested on CCRF-CEM leukemia (assay: DTP human tumour cell line panel, 48 h).
With `COC(=O)c1cc2oc(/C=C3/SC(=S)N(NC(C)=O)C3=O)cc2n1C` the GI50 was 11.8 µM and the TGI was 76 µM.
Work on `CC1(C)[C@@H](NOCCCN)CC[C@]2(C)[C@H]3C(=O)C=C4[C@@H]5C[C@](C)(C(=O)O)CC[C@]5(C)CC[C@@]4(C)[C@]3(C)CC[C@@H]12` yielded a GI50 of 7.52 µM and a TGI greater than 100 µM.
`Oc1ccc(NCn2c(=S)sc3ccccc32)cc1` gave a TGI of 92 µM.
Compound `O=C1NC(=NCc2ccccc2)S/C1=C\c1ccc2ncccc2c1` has a GI50 greater than 17.1 µM and a TGI greater than 25 µM.

These compounds were tested on COLO 205 colon (assay: DTP human tumour cell line panel, 48 h).
`COC(=O)c1cc2oc(/C=C3/SC(=S)N(NC(C)=O)C3=O)cc2n1C` was tested, and the GI50 was 22.4 µM and the TGI was greater than 100 µM.
With `CC1(C)[C@@H](NOCCCN)CC[C@]2(C)[C@H]3C(=O)C=C4[C@@H]5C[C@](C)(C(=O)O)CC[C@]5(C)CC[C@@]4(C)[C@]3(C)CC[C@@H]12` the GI50 was 2.41 µM and the TGI was 6.34 µM.
`Oc1ccc(NCn2c(=S)sc3ccccc32)cc1` gave a TGI greater than 100 µM.
Compound `O=C1NC(=NCc2ccccc2)S/C1=C\c1ccc2ncccc2c1` has a GI50 greater than 25 µM and a TGI greater than 25 µM.

What follows are compounds tested on DU-145 prostate (assay: DTP human tumour cell line panel, 48 h).
For `N=C(N)c1ccc(OCCCCCCCCCCOc2ccc(C(=N)N)cc2)cc1`, the GI50 was 1.61 µM and the TGI was 3.01 µM.
Compound `COC(=O)c1cc2oc(/C=C3/SC(=S)N(NC(C)=O)C3=O)cc2n1C` has a GI50 of 8.76 µM and a TGI of 25.4 µM.
`CC1(C)[C@@H](NOCCCN)CC[C@]2(C)[C@H]3C(=O)C=C4[C@@H]5C[C@](C)(C(=O)O)CC[C@]5(C)CC[C@@]4(C)[C@]3(C)CC[C@@H]12` showed a GI50 of 4.63 µM and a TGI of 15.4 µM.
Work on `Oc1ccc(NCn2c(=S)sc3ccccc32)cc1` yielded a TGI greater than 100 µM.
In the case of `O=C1NC(=NCc2ccccc2)S/C1=C\c1ccc2ncccc2c1`, the GI50 is reported as greater than 25 µM and the TGI is reported as greater than 25 µM.

Each compound was assayed on EKVX NSCLC (assay: DTP human tumour cell line panel, 48 h).
For `COC(=O)c1cc2oc(/C=C3/SC(=S)N(NC(C)=O)C3=O)cc2n1C`, the GI50 was 11.3 µM and the TGI was 40.5 µM.
In the case of `CC1(C)[C@@H](NOCCCN)CC[C@]2(C)[C@H]3C(=O)C=C4[C@@H]5C[C@](C)(C(=O)O)CC[C@]5(C)CC[C@@]4(C)[C@]3(C)CC[C@@H]12`, the GI50 is reported as 14 µM and the TGI is reported as 44.8 µM.
`Oc1ccc(NCn2c(=S)sc3ccccc32)cc1` gave a TGI greater than 100 µM.

Each compound was assayed on HCC-2998 colon (assay: DTP human tumour cell line panel, 48 h).
For `N=C(N)c1ccc(OCCCCCCCCCCOc2ccc(C(=N)N)cc2)cc1`, the GI50 was 1.29 µM and the TGI was 2.79 µM.
In the case of `COC(=O)c1cc2oc(/C=C3/SC(=S)N(NC(C)=O)C3=O)cc2n1C`, the GI50 is reported as 12 µM and the TGI is reported as 29.5 µM.
With `CC1(C)[C@@H](NOCCCN)CC[C@]2(C)[C@H]3C(=O)C=C4[C@@H]5C[C@](C)(C(=O)O)CC[C@]5(C)CC[C@@]4(C)[C@]3(C)CC[C@@H]12` the GI50 was 3.59 µM and the TGI was 13.1 µM.
Work on `Oc1ccc(NCn2c(=S)sc3ccccc32)cc1` yielded a TGI greater than 100 µM.
`O=C1NC(=NCc2ccccc2)S/C1=C\c1ccc2ncccc2c1` gave a GI50 greater than 25 µM and a TGI greater than 25 µM.

The compounds below were run on HCT-116 colon (assay: DTP human tumour cell line panel, 48 h).
With `COC(=O)c1cc2oc(/C=C3/SC(=S)N(NC(C)=O)C3=O)cc2n1C` the GI50 was 12.1 µM and the TGI was 31.1 µM.
In the case of `CC1(C)[C@@H](NOCCCN)CC[C@]2(C)[C@H]3C(=O)C=C4[C@@H]5C[C@](C)(C(=O)O)CC[C@]5(C)CC[C@@]4(C)[C@]3(C)CC[C@@H]12`, the GI50 is reported as 2.95 µM and the TGI is reported as 11.5 µM.
With `Oc1ccc(NCn2c(=S)sc3ccccc32)cc1` the TGI was greater than 100 µM.
In the case of `O=C1NC(=NCc2ccccc2)S/C1=C\c1ccc2ncccc2c1`, the GI50 is reported as greater than 20.7 µM and the TGI is reported as greater than 25 µM.

These compounds were tested on HCT-15 colon (assay: DTP human tumour cell line panel, 48 h).
`COC(=O)c1cc2oc(/C=C3/SC(=S)N(NC(C)=O)C3=O)cc2n1C` was tested, and the GI50 was 14.9 µM and the TGI was 58.5 µM.
With `CC1(C)[C@@H](NOCCCN)CC[C@]2(C)[C@H]3C(=O)C=C4[C@@H]5C[C@](C)(C(=O)O)CC[C@]5(C)CC[C@@]4(C)[C@]3(C)CC[C@@H]12` the GI50 was 3.6 µM and the TGI was greater than 100 µM.
`Oc1ccc(NCn2c(=S)sc3ccccc32)cc1` showed a TGI greater than 100 µM.
With `O=C1NC(=NCc2ccccc2)S/C1=C\c1ccc2ncccc2c1` the GI50 was greater than 25 µM and the TGI was greater than 25 µM.

These compounds were tested on HL-60(TB) leukemia (assay: DTP human tumour cell line panel, 48 h).
With `COC(=O)c1cc2oc(/C=C3/SC(=S)N(NC(C)=O)C3=O)cc2n1C` the GI50 was 38.3 µM and the TGI was greater than 100 µM.
For `CC1(C)[C@@H](NOCCCN)CC[C@]2(C)[C@H]3C(=O)C=C4[C@@H]5C[C@](C)(C(=O)O)CC[C@]5(C)CC[C@@]4(C)[C@]3(C)CC[C@@H]12`, the GI50 was 1.89 µM and the TGI was 4.16 µM.
Work on `Oc1ccc(NCn2c(=S)sc3ccccc32)cc1` yielded a TGI greater than 100 µM.
Work on `O=C1NC(=NCc2ccccc2)S/C1=C\c1ccc2ncccc2c1` yielded a GI50 greater than 25 µM and a TGI greater than 25 µM.

— PubChem BioAssay (NCI)
